Common to all, as to experiment: cells
Type in all cases: cell-based

One assay concerns A549. Conditions: Homo sapiens; for GI50: concentration that produces 50% growth inhibition; for IC (total growth inhibition): total growth inhibition (cytostatic effect), read-out: TGI. An excerpt: (§1) The aim of this assay is to evaluate the in vitro cytostatic (ability to delay or arrest tumor cell growth) or cytotoxic (ability to kill tumor cells) activity of the samples being tested.
(§2) A colorimetric type of assay, using sulforhodamine B (SRB) reaction has been adapted for a quantitative measurement of cell growth and viability (following the technique described by Skehan P et al. J. Natl. Cancer Inst. 1990, 82, 1107-1112).
(§3) This form of assay employs SBS-standard 96-well cell culture microplates (Faircloth et al. Methods in cell science, 1988, 11(4), 201-205; Mosmann et al, Journal of Immunological. Methods, 1983, 65(1-2), 55-63). All the cell lines used in this study, derived from different types of human cancer, were obtained from the American Type Culture Collection (ATCC).
(§4) Cells were maintained in Dulbecco's Modified Eagle Medium (DMEM) supplemented with 10% Fetal Bovine Serum (FBS), 2 mM L-glutamine, 100 U/mL penicillin and 100 U/mL streptomycin at 37° C., 5% CO2 and 98% humidity. For the experiments, cells were harvested from subconfluent cultures using trypsinization and resuspended in fresh medium before counting and plating.
(§5) Cells were seeded in 96 well microtiter plates at 5×10^3 cells per well in aliquots of 150 μL, and allowed to attach to the plate surface for 18 hours in drug free medium. One control (untreated) plate of each cell line was fixed (as described below) and used for time zero reference value. Afterwards, test samples were added to the cultures in ten serial dilutions, in aliquots of 50 μL, ranging from 10 to 0.00262 μg/mL. After 48 hours exposure, the antitumor effect was estimated by the SRB method: Briefly, cells were washed twice with PBS, fixed for 15 min in 1% glutaraldehyde solution, rinsed twice in PBS, and stained in 0.4% SRB solution for 30 min at room temperature. Cells were then rinsed several times with 1% acetic acid solution and air-dried. SRB was then extracted in 10 mM trizma base solution and the absorbance measured in an automated spectrophotometric plate reader at 490 nm. Cell survival was expressed as percentage of control cell growth. The final effect of the sample being tested was estimated by applying the NCI algorithm (Boyd M R and Paull K D. Drug Dev. Res. 1995, 34, 91-104).
(§6) Using the mean±SD of triplicate cultures, a dose-response curve was automatically generated using nonlinear regression analysis. Three reference parameters were calculated (NCI algorithm) by automatic interpolation: GI50=concentration that produces 50% growth inhibition; TGI=total growth inhibition (cytostatic effect) and LC50=concentration that produces 50% net cell killing (cytotoxic effect).

A further assay deals with MDA-MB-231. Conditions: Homo sapiens; for GI50: concentration that produces 50% growth inhibition; for IC (total growth inhibition): read-out: TGI.
Description: as §1, §2, §3, §4, §5, §6

In a further assay the test system is HT29. Conditions: Homo sapiens; for GI50: concentration that produces 50% growth inhibition; for IC (total growth inhibition): total growth inhibition (cytostatic effect), read-out: TGI.
Description: as §1, §2, §3, §4, §5, §6

Where [1] appears, read: A549, 48 hours exposure, concentration that produces 50% net cell killing, read-out: LC50 (the source's name).
[2] abbreviates: MDA-MB-231, 48 hours exposure, concentration that produces 50% net cell killing, read-out: LC50 (the source's name).
Setting [3] is: MDA-MB-231, 48 hours exposure, total growth inhibition (cytostatic effect).
The mark [4] stands for this setting: HT-29, HT29, 48 hours exposure, concentration that produces 50% net cell killing, read-out: LC50 (the source's name).
[5] abbreviates: MDA-MB-231, 48 h, read-out: LC50.

For orientation: GI50 means the concentration giving 50% growth inhibition. Lower therefore signals greater sensitivity of the cells.

Like-named read-outs stand apart in the source and are kept apart here.

For `COC1=CC[C@@H]([C@@H](C)/C=C(C)/C=C\C#CC(=O)N[C@H](C(=O)N/C=C\C[C@H](C/C=C(\C)Cl)O[Si](C)(C)C(C)(C)C)C(C)(C)C)OC1=O` [Compound 64a], the 50% growth inhibitory concentration (GI50) with A549 (A549, 48 hours exposure) was determined as 4440 nM; in the assay with MDA-MB-231 (MDA-MB-231, 48 hours exposure), 4890 nM; in the assay with HT29 (HT-29, HT29, 48 hours exposure) it was 2220 nM. In addition, the CC50 in the assay with A549 (setting [1]), in the assay with MDA-MB-231 (setting [2]) and with HT29 (setting [4]) was more than 14800 nM each time. Moreover, the IC (total growth inhibition) was more than 14.8 µM in the assay on A549 (A549, 48 hours exposure); more than 14.8 µM in the assay with MDA-MB-231 (setting [3]); 4.29 µM in the assay on HT29 (HT-29, HT29, 48 hours exposure).
On to `COC1=CC[C@@H]([C@@H](C)/C=C(C)/C=C\C#CC(=O)N[C@H](C(=O)N/C=C\C[C@H](C/C=C(\C)Cl)O[Si](C)(C)C(C)(C)C)C(C)C)OC1=O` [Compound 64b], for which the GI50 with A549 (A549, 48 hours exposure) is 680 nM; in the assay on MDA-MB-231 (MDA-MB-231, 48 hours exposure), 1330 nM; in the assay on HT29 (HT-29, HT29, 48 hours exposure), 423 nM. In addition, the CC50 in the assay with A549 (setting [1]) was more than 15100 nM; in the assay on MDA-MB-231 (setting [2]) it was more than 15100 nM; in the assay on HT29 (setting [4]) it was 2420 nM. Besides, the IC (total growth inhibition) in the assay with A549 (A549, 48 hours exposure) was 3.33 µM; with MDA-MB-231 (setting [3]), more than 15.1 µM; in the assay on HT29 (HT-29, HT29, 48 hours exposure), 0.65 µM.
For the molecule `COC1=CC[C@@H]([C@@H](C)/C=C(C)/C=C\C#CC(=O)N[C@H](C(=O)N/C=C\C[C@@H](O)C/C=C(\C)Cl)C(C)(C)C)OC1=O` [Compound 65a], the CC50 in the assay with A549 (A549, 48 h, read-out: LC50) was 11800 nM; in the assay on MDA-MB-231 (setting [5]), more than 17800 nM; in the assay with HT29 (HT-29, 48 h, read-out: LC50), 7310 nM. The GI50 in the assay on A549 (A549, 48 hours exposure) stood at 3390 nM; in the assay on MDA-MB-231 (MDA-MB-231, 48 hours exposure) it was 3560 nM; with HT29 (HT-29, HT29, 48 hours exposure), 1780 nM. For the same molecule, the IC (total growth inhibition) with A549 (A549, 48 hours exposure) turned out to be 6.24 µM; with MDA-MB-231 (setting [3]), 9.98 µM; in the assay with HT29 (HT-29, HT29, 48 hours exposure), 3.03 µM.
On to `COC1=CC[C@@H]([C@@H](C)/C=C(C)/C=C\C#CC(=O)N[C@H](C(=O)N/C=C\C[C@@H](O)C/C=C(\C)Cl)C(C)C)OC1=O` [Compound 65b], for which the CC50 in the assay with A549 (A549, 48 h, read-out: LC50) is more than 18300 nM; in the assay on MDA-MB-231 (setting [5]) it was more than 18300 nM; in the assay with HT29 (HT-29, 48 h, read-out: LC50), more than 18300 nM. For the same molecule, the GI50 with A549 (A549, 48 hours exposure) came to 311 nM; in the assay with MDA-MB-231 (MDA-MB-231, 48 hours exposure), 548 nM; in the assay with HT29 (HT-29, HT29, 48 hours exposure), 183 nM. Also, the IC (total growth inhibition) in the assay on A549 (A549, 48 hours exposure) is 1.81 µM; in the assay with MDA-MB-231 (MDA-MB-231, 48 h) it was more than 18.3 µM; with HT29 (HT-29, HT29, 48 hours exposure), 0.494 µM.
With `COC1=CC[C@@H]([C@@H](C)/C=C(C)/C=C\C#CC(=O)N[C@H](C(=O)N/C=C\C[C@H](C/C=C(\C)Cl)OC(N)=O)C(C)(C)C)OC1=O` [Compound 66a], the CC50 with A549 (A549, 48 h, read-out: LC50) was more than 16600 nM; with MDA-MB-231 (setting [5]), more than 16600 nM; in the assay with HT29 (HT-29, 48 h, read-out: LC50) it was 2810 nM. Further, the concentration for 50% growth inhibition (GI50) with A549 (A549, 48 hours exposure) was 33.1 nM; in the assay on MDA-MB-231 (MDA-MB-231, 48 hours exposure) it was 44.7 nM; in the assay on HT29 (HT-29, HT29, 48 hours exposure) it was 12.1 nM. Also, the IC (total growth inhibition) with A549 (A549, 48 hours exposure) amounted to 0.397 µM; in the assay with MDA-MB-231 (setting [3]), 0.778 µM; with HT29 (HT-29, HT29, 48 hours exposure), 0.0513 µM.
On to `COC1=CC[C@@H]([C@@H](C)/C=C(C)/C=C\C#CC(=O)N[C@H](C(=O)N/C=C\C[C@H](C/C=C(\C)Cl)OC(N)=O)C(C)C)OC1=O` [Compound 66b], for which the CC50 in the assay with A549 (A549, 48 h, read-out: LC50) was more than 16900 nM; in the assay with MDA-MB-231 (setting [5]), 4580 nM; in the assay on HT29 (HT-29, 48 h, read-out: LC50), 42.4 nM. Besides, the GI50 in the assay on A549 (A549, 48 hours exposure) came to 25.4 nM; in the assay on MDA-MB-231 (MDA-MB-231, 48 hours exposure), 27.1 nM; in the assay with HT29 (HT-29, HT29, 48 hours exposure) it was 22 nM. The IC (total growth inhibition) in the assay with A549 (A549, 48 hours exposure) came out at 0.0813 µM; in the assay on MDA-MB-231 (setting [3]), 0.373 µM; in the assay on HT29 (HT-29, HT29, 48 hours exposure), 0.0288 µM.

These data come from patent publication US9750759B2, “Antitumoral compounds” (priority 2008, dated 2017).
